Data set [1] addresses T1, CYP2C9 (Homo sapiens, UniProt P11712).
T1 construct: human liver microsomes (0.25 mg/mL); from tissue; host or cells: human liver microsomes
The experiment in a line: CYP isoenzyme activity inhibition in human liver microsomes, CYP2C9. It is filed as in vitro ADME. To be noted: 10 µM compound; human liver microsomes 0.25 mg/mL; relative to control without compound. The procedure: (§1) The CYP isoenzyme activity inhibitory effect by the compounds prepared according to Examples 1 to 46 was confirmed. Specifically, human liver microsomes (0.25 mg/mL), 0.1 M phosphate buffer solution (pH 7.4), a substrate drug cocktail of five drug metabolizing enzymes (Phenacetin 50 µM, Diclofenac 10 µM, S-mephenytoin 100 µM, Dextromethorphan 5 µM, and Midazolam 2.5 µM), and the compounds were added at concentrations of 0 or 10 µM, respectively, and pre-incubated at 37°C for 5 minutes, and then NADPH generation system solution was added and incubated at 37°C for an additional 15 minutes. Thereafter, an acetonitrile solution containing an internal standard (Terfenadine) was added to terminate the reaction, and after centrifugation for 5 minutes (14,000 rpm, 4°C), the supernatant was injected into an LC-MS/MS system to simultaneously analyze the metabolites of the substrate drugs, thereby evaluating the drug metabolizing enzyme inhibitory activity.
(§2) The metabolites of each CYP isoenzyme marker drug generated through the reaction were analyzed using a Shimadzu Nexera XR system and TSQ vantage (Thermo). A Kinetex C18 (2.1 × 100 mm, 2.6 µm, particle size; Phenomenex, USA) was used as the HPLC column, and (A) distilled water containing 0.1% formic acid and (B) acetonitrile containing 0.1% formic acid were used as mobile phases, and a gradient program as shown in Table 6 below was applied.
(§3) The generated metabolites were quantified using MRM (Multiple Reaction Monitoring) quantitative mode, and Xcalibur (version 1.6.1) was used for data analysis. To show the CYP isoenzyme activity inhibitory effect of the novel compounds prepared according to the Examples of the disclosure, the % activity of CYP isoenzymes relative to the control group without compound addition is shown in Table 6 below. Additionally, to confirm the difference in effect according to substituents, Comparative Compounds 1 and 5, which are two compounds that share a similar parent nucleus structure with Compounds 1 to 46 of the disclosure while Cy is substituted with aromatic heteroaryl instead of saturated heterocyclyl, were selected as comparative compounds and their activities are shown together.

The target of data set [2] is T2, CYP2C19 (Homo sapiens, UniProt P33261).
T2 construct: human liver microsomes (0.25 mg/mL); from tissue; host or cells: human liver microsomes
T2 sequence (P33261 whole entry): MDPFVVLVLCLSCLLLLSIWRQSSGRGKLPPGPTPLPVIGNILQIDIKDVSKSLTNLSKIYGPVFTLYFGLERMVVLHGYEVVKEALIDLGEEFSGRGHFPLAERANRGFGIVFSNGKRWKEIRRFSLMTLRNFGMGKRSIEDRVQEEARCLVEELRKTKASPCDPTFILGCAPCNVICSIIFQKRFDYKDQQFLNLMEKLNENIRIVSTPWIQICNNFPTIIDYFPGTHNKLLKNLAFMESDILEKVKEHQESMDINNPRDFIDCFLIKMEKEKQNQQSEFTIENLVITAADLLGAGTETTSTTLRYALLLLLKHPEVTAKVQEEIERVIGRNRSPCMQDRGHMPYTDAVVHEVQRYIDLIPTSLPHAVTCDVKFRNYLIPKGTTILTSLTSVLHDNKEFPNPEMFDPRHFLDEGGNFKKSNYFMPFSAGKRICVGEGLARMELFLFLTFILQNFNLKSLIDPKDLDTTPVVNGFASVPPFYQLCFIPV
The experiment in a line: CYP isoenzyme activity inhibition in human liver microsomes, CYP2C19. In kind it is in vitro ADME. The note with it: 10 µM compound; human liver microsomes 0.25 mg/mL; relative to control without compound. Here is the method:
as §1, §2, §3

Data set [3] has as its system TDP-43 BiFC cells. The data set is described as follows: Cell viability (stained nuclei count) in TDP-43-BiFC cells. The note with it: Forskolin-only group = 100%. It is filed as cell-based. The essentials: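 Forskolin (30 µM) co-treated with compound (screen 3 and 10 µM; dose-response 0.003–10 µM) for 48 h. BiFC fluorescence normalised to Forskolin-only (100% aggregation) minus untreated; viability from Hoechst-stained nuclei count vs Forskolin-only. IC50 by nonlinear regression.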

Data set [4] concerns the target T3, CYP1A2 (Homo sapiens, UniProt P05177).
T3 construct: human liver microsomes (0.25 mg/mL); from tissue; host or cells: human liver microsomes
T3 sequence (P05177 1-516): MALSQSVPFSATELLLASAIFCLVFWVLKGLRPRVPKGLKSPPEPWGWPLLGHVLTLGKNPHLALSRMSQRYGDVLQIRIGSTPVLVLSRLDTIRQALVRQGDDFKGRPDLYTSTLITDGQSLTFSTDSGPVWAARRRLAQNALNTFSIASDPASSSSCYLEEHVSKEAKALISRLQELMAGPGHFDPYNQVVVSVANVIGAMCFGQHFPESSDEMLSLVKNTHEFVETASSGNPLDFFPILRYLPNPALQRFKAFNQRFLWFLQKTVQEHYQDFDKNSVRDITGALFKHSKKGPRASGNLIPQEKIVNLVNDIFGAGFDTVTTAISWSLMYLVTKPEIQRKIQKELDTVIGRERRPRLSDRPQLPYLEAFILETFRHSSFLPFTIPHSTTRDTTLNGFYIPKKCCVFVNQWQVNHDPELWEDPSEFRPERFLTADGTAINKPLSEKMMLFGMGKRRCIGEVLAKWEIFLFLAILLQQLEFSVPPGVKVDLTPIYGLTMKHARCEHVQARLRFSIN
The experiment in a line: CYP isoenzyme activity inhibition in human liver microsomes, CYP1A2. It is filed as in vitro ADME. To be noted: 10 µM compound; human liver microsomes 0.25 mg/mL; relative to control without compound. Here is the method:
as §1, §2, §3
Background: Liver microsomes are a subcellular fraction often used to study metabolism.

T1 sequence (P11712 whole entry): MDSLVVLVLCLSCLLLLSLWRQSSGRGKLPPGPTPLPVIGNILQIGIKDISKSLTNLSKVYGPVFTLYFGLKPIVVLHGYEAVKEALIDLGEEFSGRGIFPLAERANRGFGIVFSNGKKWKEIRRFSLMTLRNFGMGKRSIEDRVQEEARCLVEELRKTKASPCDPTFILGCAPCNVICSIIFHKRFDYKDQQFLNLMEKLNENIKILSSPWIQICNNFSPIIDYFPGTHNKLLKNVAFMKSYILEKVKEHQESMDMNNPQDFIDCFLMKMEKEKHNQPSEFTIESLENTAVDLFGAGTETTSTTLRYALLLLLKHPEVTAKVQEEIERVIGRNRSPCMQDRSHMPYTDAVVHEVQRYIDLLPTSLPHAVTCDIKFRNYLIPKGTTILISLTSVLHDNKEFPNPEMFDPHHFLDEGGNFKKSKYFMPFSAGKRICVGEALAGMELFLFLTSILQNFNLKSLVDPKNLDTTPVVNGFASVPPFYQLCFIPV

Consider `COC1CCN(c2nc3ccc(NN=C(C#N)C#N)cc3o2)CC1` [Compound 17, (2-(4-methoxypiperidin-1-yl)benzo[d]oxazol-6-yl)carbonohydrazonoyl dicyanide], for which the “CYP2C9 (% activity)” value in data set [1] is listed as 73.8 % activity. The “CYP2C19 (% activity)” value in data set [2] is given as 90 % activity. Moreover, the “Cell viability (%) (@ 3 uM)” value in data set [3] is given as 96.9%. For the same compound, the “CYP1A2 (% activity)” value in data set [4] is on record as 83.2 % activity.
In the case of `CC1CN(c2nc3ccc(NN=C(C#N)C#N)cc3o2)CC(C)O1` (centres unmarked) [Compound 18, (2-(2,6-dimethylmorpholino)benzo[d]oxazol-6-yl)carbonohydrazonoyl dicyanide], the “CYP2C9 (% activity)” value in data set [1] was > 100 % activity. In addition, the “CYP2C19 (% activity)” value in data set [2] is listed as 100 % activity. Besides, the “Cell viability (%) (@ 3 uM)” value in data set [3] was determined as 102.1%. Besides, the “CYP1A2 (% activity)” value in data set [4] is 98.9 % activity.
The like results for `N#CC(C#N)=NNc1ccc2nc(N3C4CCC3COC4)oc2c1` [Compound 20, (2-(3-oxa-8-azabicyclo[3.2.1]octan-8-yl)benzo[d]oxazol-6-yl)carbonohydrazonoyl dicyanide] were, in that order, 48 % activity, 51.8 % activity, 75.4% and 55.6 % activity.
On to `N#CC(C#N)=NNc1ccc2nc(N3CC4CCC(C3)O4)sc2c1` [Compound 23, (2-(8-oxa-3-azabicyclo[3.2.1]octan-3-yl)benzo[d]thiazol-6-yl)carbonohydrazonoyl dicyanide], for which, in data set [1], the “CYP2C9 (% activity)” value is 68.5 % activity. In data set [2], the “CYP2C19 (% activity)” value is 69.6 % activity. Moreover, in data set [3], the “Cell viability (%) (@ 3 uM)” value turned out to be 81.1%. For the same compound, the “CYP1A2 (% activity)” value in data set [4] was 70.6 % activity.
The matching figures for `N#CC(C#N)=NNc1ccc2nc(N3CCNCC3)sc2c1` [Compound 24, (2-(piperazin-1-yl)benzo[d]thiazol-6-yl)carbonohydrazonoyl dicyanide]: 72.0 % activity, 67.9 % activity, 83.1% and 65.1 % activity.
The like results for `N#CC(C#N)=NNc1ccc2nc(N3CCNCC3)oc2c1` [Compound 25, (2-(piperazin-1-yl)benzo[d]oxazol-6-yl)carbonohydrazonoyl dicyanide] were, in that order, 93.5 % activity, 85.7 % activity, 76.7% and 87 % activity.
The like results for `N#CC(C#N)=NNc1ccc2nc(N3CC4CCC(C3)O4)oc2c1` [Compound 26, (2-(8-oxa-3-azabicyclo[3.2.1]octan-3-yl)benzo[d]oxazol-6-yl)carbonohydrazonoyl dicyanide] were, in that order, 53.3 % activity, 82.1 % activity, 76.1% and 79.1 % activity.
`CC(C)N1CCN(c2nc3ccc(NN=C(C#N)C#N)cc3s2)CC1` [Compound 27, (2-(4-isopropylpiperazin-1-yl)benzo[d]thiazol-6-yl)carbonohydrazonoyl dicyanide]: the “CYP2C9 (% activity)” value in data set [1] was found to be 58.5 % activity. The “CYP2C19 (% activity)” value in data set [2] came out at 95.4 % activity. The “Cell viability (%) (@ 3 uM)” value in data set [3] is recorded as 104.8%. Further, the “CYP1A2 (% activity)” value in data set [4] was found to be 95.1 % activity.
Turning to `CC(C)N1CCN(c2nc3ccc(NN=C(C#N)C#N)cc3o2)CC1` [Compound 28, (2-(4-isopropylpiperazin-1-yl)benzo[d]oxazol-6-yl)carbonohydrazonoyl dicyanide], the “CYP2C9 (% activity)” value in data set [1] is recorded as 48.5 % activity. For the same compound, the “CYP2C19 (% activity)” value in data set [2] is given as 90.8 % activity. In data set [3], the “Cell viability (%) (@ 3 uM)” value is 113.4%. Further, in data set [4], the “CYP1A2 (% activity)” value was 95.5 % activity.
The like results for `CC(=O)N1CCN(c2nc3ccc(NN=C(C#N)C#N)cc3s2)CC1` [Compound 30, (2-(4-acetylpiperazin-1-yl)benzo[d]thiazol-6-yl)carbonohydrazonoyl dicyanide] were, in that order, 86.2 % activity, 86.2 % activity, 83.1% and 88.9 % activity.
The matching figures for `CC(=O)N1CCN(c2nc3ccc(NN=C(C#N)C#N)cc3o2)CC1` [Compound 31, (2-(4-acetylpiperazin-1-yl)benzo[d]oxazol-6-yl)carbonohydrazonoyl dicyanide]: 88.8 % activity, 90.8 % activity, 82.7% and 92.7 % activity.
As for `CCn1c(N2CCOCC2)nc2ccc(NN=C(C#N)C#N)cc21` [Compound 32, (1-ethyl-2-morpholino-1H-benzo[d]imidazol-6-yl)carbonohydrazonoyl dicyanide], the “CYP2C9 (% activity)” value in data set [1] was 65.1 % activity. For the same compound, in data set [2], the “CYP2C19 (% activity)” value is 77.1 % activity. Moreover, in data set [3], the “Cell viability (%) (@ 3 uM)” value is recorded as 59.7%. In data set [4], the “CYP1A2 (% activity)” value came to 78.9 % activity.
Take `CCn1c(N2CCOCC2)nc2cc(NN=C(C#N)C#N)ccc21` [Compound 33, (1-ethyl-2-morpholino-1H-benzo[d]imidazol-5-yl)carbonohydrazonoyl dicyanide]: the “CYP2C9 (% activity)” value in data set [1] amounted to 28.8 % activity. For the same compound, the “CYP2C19 (% activity)” value in data set [2] turned out to be 78.6 % activity. In addition, in data set [3], the “Cell viability (%) (@ 3 uM)” value is 55.0%. The “CYP1A2 (% activity)” value in data set [4] is given as 75.5 % activity.
`Cn1c(N2C3CCC2COC3)nc2ccc(NN=C(C#N)C#N)cc21` [Compound 34, (2-(3-oxa-8-azabicyclo[3.2.1]octan-8-yl)-1-methyl-1H-benzo[d]imidazol-6-yl)carbonohydrazonoyl dicyanide]: the “CYP2C9 (% activity)” value in data set [1] was determined as 80.8 % activity. In data set [2], the “CYP2C19 (% activity)” value amounted to 80.6 % activity. Also, the “Cell viability (%) (@ 3 uM)” value in data set [3] was 59.5%. For the same compound, the “CYP1A2 (% activity)” value in data set [4] stood at 85.8 % activity.
The matching figures for `Cn1c(N2C3CCC2COC3)nc2cc(NN=C(C#N)C#N)ccc21` [Compound 35, (2-(3-oxa-8-azabicyclo[3.2.1]octan-8-yl)-1-methyl-1H-benzo[d]imidazol-5-yl)carbonohydrazonoyl dicyanide]: 84.3 % activity, 82 % activity, 67.4% and 81.5 % activity.
On to `N#CC(C#N)=NNc1ccc2nc(NC(=O)N3CCOCC3)sc2c1` [Compound 38, (2-(morpholine-4-carboxamido)benzo[d]thiazol-6-yl)carbonohydrazonoyl dicyanide], for which the “CYP2C9 (% activity)” value in data set [1] is given as 73.6 % activity. Moreover, in data set [2], the “CYP2C19 (% activity)” value came out at 80 % activity. The “Cell viability (%) (@ 3 uM)” value in data set [3] turned out to be 111.9%. Also, in data set [4], the “CYP1A2 (% activity)” value turned out to be 83.9 % activity.
`CC1CN(C(=O)Nc2nc3ccc(NN=C(C#N)C#N)cc3s2)CC(C)O1` (centres unmarked) [Compound 39, (2-(2,6-dimethylmorpholine-4-carboxamido)benzo[d]thiazol-6-yl)carbonohydrazonoyl dicyanide]: in data set [1], the “CYP2C9 (% activity)” value turned out to be 42.9 % activity. For the same compound, the “CYP2C19 (% activity)” value in data set [2] was determined as 78.6 % activity. In data set [3], the “Cell viability (%) (@ 3 uM)” value came to 117.7%. Moreover, the “CYP1A2 (% activity)” value in data set [4] amounted to 84 % activity.
